Reference: PubChem BioAssay (NCI)
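48-hour exposure; five concentrations; linearly interpolated endpoints. Here, GI50 denotes the concentration required for 50% inhibition of growth. TGI denotes the concentration required for complete inhibition of growth.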

Legend:
Experiment in all cases: NCI-60 cell line screen, 48 h
NCI-H460 lung = test system: NCI-H460 lung
COLO 205 colon = test system: COLO 205 colon
OVCAR-4 ovarian = test system: OVCAR-4 ovarian
RXF 393 renal = test system: RXF 393 renal
SK-MEL-2 melanoma = test system: SK-MEL-2 melanoma
SF-295 CNS = test system: SF-295 CNS
SK-MEL-5 melanoma = test system: SK-MEL-5 melanoma
MCF7 breast = test system: MCF7 breast
786-0 renal = test system: 786-0 renal
HOP-92 NSCLC = test system: HOP-92 NSCLC

Structure (SMILES)	GI50 (NCI-H460 lung) [µM]	TGI (NCI-H460 lung) [µM]	GI50 (COLO 205 colon) [µM]	TGI (COLO 205 colon) [µM]	GI50 (OVCAR-4 ovarian) [µM]	TGI (OVCAR-4 ovarian) [µM]	GI50 (RXF 393 renal) [µM]	TGI (RXF 393 renal) [µM]	GI50 (SK-MEL-2 melanoma) [µM]	TGI (SK-MEL-2 melanoma) [µM]	GI50 (SF-295 CNS) [µM]	TGI (SF-295 CNS) [µM]	GI50 (SK-MEL-5 melanoma) [µM]	TGI (SK-MEL-5 melanoma) [µM]	GI50 (MCF7 breast) [µM]	TGI (MCF7 breast) [µM]	GI50 (786-0 renal) [µM]	TGI (786-0 renal) [µM]	GI50 (HOP-92 NSCLC) [µM]	TGI (HOP-92 NSCLC) [µM]
COC(=O)c1oc2c(C(=O)/C=C/c3ccc(OC)cc3)c(OCCN(C)C)ccc2c1C	4.56	17.5	4.59	19.3	5.06	16.8	3.91	14.6	12.4	28.8	14.2	29.3	10.6	22.4	2.98	9.89	9.4	22.3	5.91	19.8
CCN(Cc1cccc(Cl)c1)c1ccc(CO)c(Cl)c1	0.35	12.3	2.43	7.53	0.505	9.87	4.67	19.8	3.86	20.8	1.12	13.8	5.73	19.9	0.329	11.4	5.96	20.9	1.29	10.7
CC(=O)N1N=C(c2ccc(Nc3nc(Nc4ccc(F)cc4)nc(Nc4ccc(F)cc4)n3)cc2)CC1c1ccc(N(C)C)cc1 (centres undefined)	4.9	17	5.73	22.6	3.77	> 100	1.56	5.6	3.61	16.5	4.34	50.7	2.83	13	3.23	13.7	5.09	23.3	–	0.488
Nc1ccccc1C(=O)CCC1C(=O)NC(=S)NC1=O	–	> 100	–	> 100	–	> 100	–	> 100	–	> 100	–	> 100	–	> 100	–	> 100	–	> 100	–	> 100
COc1cccc(Nc2nc3ccccc3c3occc23)c1	25.2	> 100	9.49	22	11.2	29.8	4.46	19.8	13	30.6	3.92	14.6	6.16	20.9	43.7	> 100	10.7	23.7	13	31.1
Cc1cc(Nc2cc(N3CCN(C)CC3)nc(/C=C/c3ccccc3)n2)n[nH]1	0.29	> 5.52	0.44	> 2.03	0.644	> 10	0.246	1.04	0.702	> 2.39	0.707	> 4.64	> 2.11	> 4.15	0.235	> 7.88	0.789	> 6.25	0.476	1.95
N#Cc1cnc(Nc2cc(NC[C@H]3CNCCO3)c(C(F)(F)F)cn2)cn1	13.4	38.3	9.61	23.6	10.5	82.7	0.858	18.2	12.6	34.7	0.525	> 100	9.3	21.6	0.639	23	0.668	29	8.95	26.6
CC1=CC(C)(C)NN1C1=NS(=O)(=O)c2ccccc2N1C	–	> 100	–	> 100	–	> 100	–	> 100	–	> 100	–	> 100	–	> 100	–	> 100	–	> 100	–	> 100
